Reference: the NIST ThermoML archive (doi:10.1016/j.jct.2006.03.018)
Numbers after ± are expanded uncertainties.

Columns and labels:
[1] = refractive index (Na D-line) (dimensionless); details: 101.33 kPa, Liquid
[2] = 101 kPa, Liquid
[3] = refractive index (Na D-line) (dimensionless); xn = mol fraction of the nth substance listed; details: 101 kPa, Liquid
[4] = xn = mol fraction of the nth substance listed; details: 101 kPa, Liquid

CCCCCO [pentan-1-ol]
Details | mass density, 298.15 K [kg/m3] | mass density, 303.15 K [kg/m3] | mass density, 308.15 K [kg/m3] | refractive index, 298.15 K | refractive index, 303.15 K | refractive index, 308.15 K | speed of sound, 298.15 K [m/s] | viscosity, 298.15 K [mPa·s] | viscosity, 303.15 K [mPa·s] | viscosity, 308.15 K [mPa·s]
[1] | – | – | – | 1.4073 ± 0.005 | 1.405 ± 0.005 | 1.4032 ± 0.005 | – | – | – | –
[2] | 810.92 ± 3.5 | 807.23 ± 3.5 | 803.52 ± 3.6 | – | – | – | 1286 ± 44 | 3.403 ± 0.39 | 2.959 ± 0.34 | 2.581 ± 0.3

CCO [ethanol]
Details | mass density, 298.15 K [kg/m3] | mass density, 303.15 K [kg/m3] | mass density, 308.15 K [kg/m3] | refractive index, 298.15 K | refractive index, 303.15 K | refractive index, 308.15 K | speed of sound, 298.15 K [m/s] | viscosity, 298.15 K [mPa·s] | viscosity, 303.15 K [mPa·s] | viscosity, 308.15 K [mPa·s]
[1] | – | – | – | 1.3591 ± 0.005 | 1.3572 ± 0.005 | 1.355 ± 0.005 | – | – | – | –
[2] | 785.91 ± 3.7 | 781.6 ± 3.7 | 777.26 ± 3.8 | – | – | – | 1161 ± 82 | 1.073 ± 0.14 | 0.971 ± 0.12 | 0.889 ± 0.12

COc1ccccc1 [anisole]
Details | mass density, 298.15 K [kg/m3] | mass density, 303.15 K [kg/m3] | mass density, 308.15 K [kg/m3] | refractive index, 298.15 K | refractive index, 303.15 K | refractive index, 308.15 K | speed of sound, 298.15 K [m/s] | viscosity, 298.15 K [mPa·s] | viscosity, 303.15 K [mPa·s] | viscosity, 308.15 K [mPa·s]
[1] | – | – | – | 1.5137 ± 0.005 | 1.5113 ± 0.005 | 1.5088 ± 0.005 | – | – | – | –
[2] | 989.15 ± 1.6 | 984.45 ± 1.6 | 979.73 ± 1.7 | – | – | – | 1412 ± 95 | 0.988 ± 0.13 | 0.913 ± 0.12 | 0.854 ± 0.11

CC(C)O [propan-2-ol]
Details | mass density, 298.15 K [kg/m3] | mass density, 303.15 K [kg/m3] | mass density, 308.15 K [kg/m3] | refractive index, 298.15 K | refractive index, 303.15 K | refractive index, 308.15 K | speed of sound, 298.15 K [m/s] | viscosity, 298.15 K [mPa·s] | viscosity, 303.15 K [mPa·s] | viscosity, 308.15 K [mPa·s]
[1] | – | – | – | 1.3745 ± 0.005 | 1.3721 ± 0.005 | 1.3702 ± 0.005 | – | – | – | –
[2] | 781.36 ± 3.8 | 777.09 ± 3.8 | 772.75 ± 3.9 | – | – | – | 1141 ± 41 | 2.042 ± 0.24 | 1.755 ± 0.21 | 1.521 ± 0.18

CCCCO [butan-1-ol]
Details | mass density, 298.15 K [kg/m3] | mass density, 303.15 K [kg/m3] | mass density, 308.15 K [kg/m3] | refractive index, 298.15 K | refractive index, 303.15 K | refractive index, 308.15 K | speed of sound, 298.15 K [m/s] | viscosity, 298.15 K [mPa·s] | viscosity, 303.15 K [mPa·s] | viscosity, 308.15 K [mPa·s]
[1] | – | – | – | 1.3968 ± 0.005 | 1.3944 ± 0.005 | 1.3923 ± 0.005 | – | – | – | –
[2] | 806.12 ± 14 | 802.28 ± 14 | 798.41 ± 14 | – | – | – | 1246 ± 43 | 2.585 ± 0.3 | 2.284 ± 0.27 | 1.981 ± 0.24

CCCO [propan-1-ol]
Details | mass density, 298.15 K [kg/m3] | mass density, 303.15 K [kg/m3] | mass density, 308.15 K [kg/m3] | refractive index, 298.15 K | refractive index, 303.15 K | refractive index, 308.15 K | speed of sound, 298.15 K [m/s] | viscosity, 298.15 K [mPa·s] | viscosity, 303.15 K [mPa·s] | viscosity, 308.15 K [mPa·s]
[1] | – | – | – | 1.3826 ± 0.005 | 1.3808 ± 0.005 | 1.3782 ± 0.005 | – | – | – | –
[2] | 799.96 ± 3.5 | 795.93 ± 3.6 | 791.86 ± 3.6 | – | – | – | 1206 ± 42 | 1.792 ± 0.21 | 1.706 ± 0.2 | 1.518 ± 0.18

CC(C)CCO [3-methylbutan-1-ol]
Details | mass density, 298.15 K [kg/m3] | mass density, 303.15 K [kg/m3] | mass density, 308.15 K [kg/m3] | refractive index, 298.15 K | refractive index, 303.15 K | speed of sound, 298.15 K [m/s] | viscosity, 298.15 K [mPa·s] | viscosity, 303.15 K [mPa·s]
[1] | – | – | – | 1.405 ± 0.0025 | 1.403 ± 0.0025 | – | – | –
[2] | 807.2 ± 6.9 | 803.45 ± 7 | 791.86 ± 7.3 | – | – | 1241 ± 43 | 3.835 ± 0.44 | 3.261 ± 0.38

COc1ccccc1 [anisole] + CCCCCO
Details | mass density, 298.15 K [kg/m3] | mass density, 303.15 K [kg/m3] | mass density, 308.15 K [kg/m3] | refractive index, 298.15 K | refractive index, 303.15 K | refractive index, 308.15 K | speed of sound, 298.15 K [m/s] | viscosity, 298.15 K [mPa·s] | viscosity, 303.15 K [mPa·s] | viscosity, 308.15 K [mPa·s]
[3], x1 = 0.1013 | – | – | – | 1.4091 ± 0.005 | 1.4066 ± 0.005 | 1.404 ± 0.005 | – | – | – | –
[3], x1 = 0.2032 | – | – | – | 1.4166 ± 0.005 | 1.4138 ± 0.005 | 1.4112 ± 0.005 | – | – | – | –
[3], x1 = 0.3022 | – | – | – | 1.4237 ± 0.005 | 1.4219 ± 0.005 | 1.4201 ± 0.005 | – | – | – | –
[3], x1 = 0.3946 | – | – | – | 1.4333 ± 0.005 | 1.4302 ± 0.005 | 1.4272 ± 0.005 | – | – | – | –
[3], x1 = 0.4912 | – | – | – | 1.4429 ± 0.005 | 1.4401 ± 0.005 | 1.4379 ± 0.005 | – | – | – | –
[3], x1 = 0.5984 | – | – | – | 1.4561 ± 0.005 | 1.4533 ± 0.005 | 1.451 ± 0.005 | – | – | – | –
[3], x1 = 0.6976 | – | – | – | 1.4667 ± 0.005 | 1.4642 ± 0.005 | 1.4616 ± 0.005 | – | – | – | –
[3], x1 = 0.7965 | – | – | – | 1.4807 ± 0.005 | 1.4778 ± 0.005 | 1.4747 ± 0.005 | – | – | – | –
[3], x1 = 0.8974 | – | – | – | 1.4963 ± 0.005 | 1.4934 ± 0.005 | 1.491 ± 0.005 | – | – | – | –
[3], x1 = 1 | – | – | – | 1.5137 ± 0.005 | 1.5113 ± 0.005 | 1.5088 ± 0.005 | – | – | – | –
[4], x1 = 0.1013 | 828.63 ± 3.3 | 824.77 ± 3.3 | 820.91 ± 3.4 | – | – | – | 1298 ± 45 | 2.677 ± 0.31 | 2.332 ± 0.27 | 2.051 ± 0.24
[4], x1 = 0.2032 | 846.67 ± 3.1 | 842.67 ± 3.1 | 838.66 ± 3.2 | – | – | – | 1311 ± 45 | 2.005 ± 0.24 | 1.773 ± 0.21 | 1.575 ± 0.19
[4], x1 = 0.3022 | 864.26 ± 2.9 | 860.11 ± 2.9 | 855.96 ± 3 | – | – | – | 1324 ± 45 | 1.743 ± 0.21 | 1.545 ± 0.19 | 1.384 ± 0.17
[4], x1 = 0.3946 | 880.67 ± 2.7 | 876.42 ± 2.8 | 872.17 ± 2.8 | – | – | – | 1336 ± 46 | 1.513 ± 0.18 | 1.359 ± 0.17 | 1.219 ± 0.15
[4], x1 = 0.4912 | 897.83 ± 2.5 | 893.47 ± 2.6 | 889.11 ± 2.6 | – | – | – | 1350 ± 46 | 1.318 ± 0.16 | 1.195 ± 0.15 | 1.091 ± 0.14
[4], x1 = 0.5984 | 916.91 ± 2.3 | 912.45 ± 2.4 | 907.98 ± 2.4 | – | – | – | 1361 ± 46 | 1.18 ± 0.15 | 1.072 ± 0.14 | 0.979 ± 0.12
[4], x1 = 0.6976 | 934.59 ± 2.1 | 930.04 ± 2.2 | 925.49 ± 2.2 | – | – | – | 1374 ± 46 | 1.092 ± 0.14 | 0.999 ± 0.13 | 0.916 ± 0.12
[4], x1 = 0.7965 | 952.41 ± 1.9 | 947.78 ± 2 | 943.15 ± 2 | – | – | – | 1388 ± 47 | 1.004 ± 0.13 | 0.927 ± 0.12 | 0.853 ± 0.11
[4], x1 = 0.8974 | 970.59 ± 1.8 | 965.9 ± 1.8 | 961.2 ± 1.9 | – | – | – | 1395 ± 47 | 0.955 ± 0.12 | 0.88 ± 0.11 | 0.919 ± 0.12
[4], x1 = 1 | 989.15 ± 1.6 | 984.45 ± 1.6 | 979.73 ± 1.7 | – | – | – | 1412 ± 47 | 0.988 ± 0.13 | 0.913 ± 0.12 | 0.854 ± 0.11
